{"source": "patent US12031137B2", "about": "“Compositions comprising SASP modulators and senescence attenuators and uses thereof for modulating cellular senescence” (RSEM, LIMITED PARTNERSHIP, priority 2016, dated 2024)", "key": {"[1]": {"test_system": "mouse model of oxygen-induced retinopathy (OIR)", "assay": "Avascular area and pre-retinal neovascularization in OIR flatmount retinas", "type": "in vivo"}, "[2]": {"assay": "Mouse weight gain on systemic administration of metformin", "type": "in vivo"}, "[3]": {"test_system": "mouse model of oxygen-induced retinopathy (OIR)", "assay": "Immunoblot and RT-qPCR of OIR retinas after intravitreal injection", "type": "in vivo", "source_text": "(§1) O2-induced retinopathy. Mouse pups from different strains (C57Bl/6 WT, LyzM-Cre, LysM-Cre/IRE1^fl/fl, LysM-Cre/IRE1^+/+, IRE1^fl/fl and LysM-Cre/ROSA26EYFP^fl/fl), and their fostering mothers (CD1, Charles River) were exposed to 75% 02 from postnatal day 7 (P7) to day 12 and returned to room air. This model serves as a proxy to human ocular neovascular diseases such as ROP and diabetic retinopathy characterized by a late phase of destructive pathological angiogenesis (72, 73). Upon return to room air, hypoxia-driven neovascularization (NV) develops from P14 onwards (27). We enucleated eyes at different time points and dissected the retinas for mRNA, protein assays or flatmounting.\n(§2) Semi-quantitative and Real-time PCR analysis. We isolated RNA using the GenElute™ Mammalian Total RNA Miniprep Kit (Sigma) and performed a digestion with DNase I to prevent amplification of genomic DNA. We reversed transcribed the RNA using M-MLV reverse transcriptase and analyzed gene expression using SybrGreen™ in an ABI Biosystems Real-Time PCR machine. β-actin was used as a reference gene. […] We investigated the splicing of XBP-1 by incubating the XBP-1 semi-quantitative PCR product with 0.4 U/μL of PstI enzyme for 5 hrs at 37° C. followed by separation on 2.5% agarose gel.\n(§3) Intravitreal injections. P2, P10 or P12 C57BL/6 pups were anesthetized with 3.0% isoflurane and injected in the vitreous chamber with 0.5 μL of lentivirus (see “Lentivirus production”), recombinant SEMA3A (100 ng/μL), metformin (10 μg/μL) or Aflibercept (10 μg/uL) using a 10-μL Hamilton syringe fitted with a […] glass capillary tip. Approximately 254±11.0 ng/μL of lentivirus Sh_GFP and 323.3±15.3 ng/μL containing Sh_Sema3a, Lv.Cre (15.0 ng/mL), Lv.GFP (15.0 ng/mL) was injected. Virus titers were assessed with the p24 ELISA kit (ZeptoMetrix). The titers of the lentiviruses used were (in ng p24) LV.Sh_RNA IRE1α (8.52 ng/mL), and LV.Sh_RNA.GFP (8.47 ng/mL).\n(§4) Western blotting. We enucleated eyes at varying time points and rapidly dissected and homogenized retinas for assessment of retinal protein levels. Protein concentration from retinal homogenate and cell lysates were assessed by BCA assay (Sigma), and then 30 μg of protein analyzed for each condition by standard SDS-PAGE technique."}, "[4]": {"test_system": "mouse model of oxygen-induced retinopathy (OIR)", "assay": "SA-β-gal staining of retinas in oxygen-induced retinopathy (OIR) after intravitreal injection", "type": "in vivo", "conditions": "single intravitreal injection at P12, vs vehicle", "source_text": "as §1\n(§5) Senescence-associated β-galactosidase (SA-β-gal) assay. Senescence-associated β-galactosidase assays were carried out as described previously (57, 75)\nQuantification of SA-β-gal in vivo. Senescence-associated β-galactosidase staining in flatmount retinas or sagittal eye sections were analyzed using Image J software as described in FIG. 14.\nas §3"}, "[5]": {"test_system": "mouse model of oxygen-induced retinopathy (OIR)", "assay": "TUNEL staining of OIR retinas", "type": "in vivo", "conditions": "P14 OIR, intravitreal, vs vehicle-treated retinas", "source_text": "as §1, §3"}, "[6]": {"test_system": "retinal neurons (661W)", "assay": "SEMA3A exposure of 661W retinal neuron cell line (SA-β-gal)", "type": "cell-based", "conditions": "100 ng/ml, 7 days", "method": "as §5\nPreparation of conditioned media (CM). Human retinal microvascular endothelial cells (HRMECs), retinal neuron 661W photoreceptor cells and Mouse macrophages ([…]), H2O2 (150 μM for 2 h) 48 h after transfection or not as indicated in each experiment. Supernatants were centrifuged and filtered and then frozen for subsequent use. For Western Blot on CM was concentrated using ultra centrifugal amicon filter unit from Millipore."}, "[7]": {"test_system": "J774 macrophage/monocyte cells", "assay": "SEMA3A exposure of J774 macrophage/monocyte cells (SA-β-gal, immunoblot, RT-qPCR, γH2AX)", "type": "cell-based, mouse", "method": "as §2\nFor Protein localization, flatmounted retinas were incubated with different antibodies as indicated. For in vitro IF, cultured cells were plated on 0.1% gelatin-coated coverslips and serum-starved overnight and stimulated for 7 days with SEMA3A (100 ng/ml). Cells were washed briefly with cold PBS and fixed for 20 minutes in PBS containing 3.5% paraformaldehyde. Cells were rinsed with PBS and permeabilized with 0.3% Triton in PBS for 5 minutes. Fixed cells were blocked with 1% BSA and then incubated for 1 hour with primary antibodies in 0.1% BSA in PBS. Bound primary antibodies were visualized after 1 hour of incubation using Alexa Fluor secondary antibody. Coverslips were mounted using Fluoromount (Sigma-Aldrich) and analyzed by confocal microscope (Olympus confocal FV1000). Samples were viewed with a ×63/1.4 NA oil or ×30 objective. Images were assembled using Photoshop CS4 (Adobe Systems). For all antibodies used for immunohistochemistry, see Table 8.\nas §5\n(§6) Preparation of conditioned media (CM). Human retinal microvascular endothelial cells (HRMECs), retinal neuron 661W photoreceptor cells and Mouse macrophages (J774A.1 cell line) were incubated for 7 days with recombinant SEMA3A ([…]), H2O2 (150 μM for 2 h) 48 h after transfection or not as indicated in each experiment. Supernatants were centrifuged and filtered and then frozen for subsequent use. For Western Blot on CM was concentrated using ultra centrifugal amicon filter unit from Millipore.\nas §4"}, "[8]": {"test_system": "Human retinal microvascular endothelial cells (HRMECs)", "assay": "SEMA3A exposure of HRMECs (cell cycle FACS, ECIS, SA-β-gal)", "type": "cell-based", "method": "Flow Cytometry Analysis. Human retinal microvascular endothelial cells (HRMEC) cell cycle analysis (P1 biolegend) were performed according to the manufacturer's instructions and as previously reported (43). Briefly, HRMEC (1×10^6) were seeded in 6-well plates and incubated for 7 days with SEMA3A, 100 and 500 ng/ml. The samples were analyzed by flow cytometry. FACS was performed on a LSRII (BD Biosciences) device and data were analysed using FlowJo software (version 7.6.5).\nElectric Cell-substrate Impedance Sensing (ECIS) Proliferation assay. Real-time analysis of trans-endothelial electric resistance was performed by plating 5000 HRMECs/ml were seeded onto 8W10E+ standard 8-well arrays (Applied BioPhysics, NY). Cells were allowed to grow leading to a capacitance of less than 10 nF. Cells were starved for 5 Hours with endothelial basal media (EBM-2, Lonza) and then treated with 100 ng/ml SEMA3A or vehicle (EBM-2) for 120 h and impedance was measured using an ECIS Zθ impedance instrument (Applied BioPhysics, NY). Measurements were taken for 120 h post treatment.\nas §5, §6"}, "[9]": {"test_system": "retina", "assay": "Intravitreal injection of recombinant SEMA3A in mouse pups, senescence markers", "type": "in vivo", "conditions": "retina harvested at P5", "source_text": "FIG. 3A: Western blot analysis of SEMA3A protein expression level during OIR compared to normoxic controls at P10, P14, P17 and P21. β-actin is used as a loading control. FIG. 3B: Immunoblot analysis of SEMA3A protein levels during Ras-induced senescence in Mouse Embryonic Fibroblasts (MEFs). Cell lysates from MEFs retrovirally transduced with H-RasV12 oncogene or control empty vector harvested 14 days post-selection. FIG. 3C: SEMA3A transcript levels in human normal diploid fibroblasts (IMR90) retrovirally transduced with empty vector, MEK1 alone or MEK and human papillomavirus oncoproteins E6 and E7. […] FIG. 3I: HRMEC, retinal neurons (661W) and J774 (macrophages-like cells) stimulated with recombinant SEMA3A (100 ng/ml) or vehicle (CT) for 7 days, stained for SA-β-gal and quantification in FIG. 3J. […] Senescent cells were stained with SA-β-gal (right) and the level of secreted SEMA3A (S3A) protein in CM was evaluated by immunoblot (left). […] Senescence was evaluated after 7 days of treatment. FIG. 3M: Quantification of percentage of SA-β-gal positive cells treated as in (J). […]\nIntravitreal injections. […] Virus titers were assessed with the p24 ELISA kit (ZeptoMetrix). […]\nWestern blotting. […] Protein concentration from retinal homogenate and cell lysates were assessed by BCA assay (Sigma), and then 30 μg of protein analyzed for each condition by standard SDS-PAGE technique."}, "[10]": {"conditions": "intravitreal injection at P12, P14 OIR retinas"}, "[11]": {"conditions": "HRMECs, 7 days, 100 and 500 ng/ml, FACS"}}}
{"molecule": "CN(C)C(=N)NC(=N)N", "note": "[metformin, N,N-Dimethylimidodicarbonimidic diamide]", "values": [{"measurement": "benefits on pathological retinal angiogenesis", "setting": "[1]; administered via systemic paths", "value": "did not show any benefits"}, {"measurement": "enhancement of vascular regeneration", "setting": "[1]; intravitreal injection at P12, assessed at P17 OIR", "value": "more than 2 fold"}, {"measurement": "pathological neovascularization at P17 OIR", "setting": "[1]; intravitreal injection at P12, vs vehicle", "value": "by half"}, {"measurement": "mouse weight gain", "setting": "[2]", "value": "interfered with mouse weight gain"}, {"measurement": "Components of the VEGF signaling pathway (Vegf-a, Vegf-c, Vegfr-1, Vegfr-2 RT-qPCR)", "setting": "[3]; [10]", "value": "not affected"}, {"measurement": "IL6, Cdkn1a, Cdkn2a and Sema3A by RT-qPCR", "setting": "[3]; [10]", "value": "significant decrease"}, {"measurement": "NF-κB and IRE1α activation in retinas (immunoblot)", "setting": "[3]; single intravitreal injection at P12, OIR P14 and P17", "value": "attenuated"}, {"measurement": "SA-β-gal staining at P14 OIR", "setting": "[4]", "value": "significant decrease"}, {"measurement": "SA-β-gal staining at P17 OIR (cellular senescence)", "setting": "[4]", "value": "significant decrease"}, {"measurement": "apoptosis in cells of the GCL (TUNEL)", "setting": "[5]", "value": "without aggravating apoptosis"}, {"measurement": "number of apoptotic cells in the INL layer (TUNEL)", "setting": "[5]", "value": "lowered"}]}
{"molecule": "SEMA3A: Recombinant human Semaphorin 3A (from murine myeloma cell line, NS0) (R&D Systems) (protein, left off: a dimerising Fc or GST) YQNGKNNVPRLKLSYKEMLESNNVITFNGLANSSSYHTFLLDEERSRLYVGAKDHIFSFDLVNIKDFQKIVWPVSYTRRDECKWAGKDILKECANFIKVLKAYNQTHLYACGTGAFHPICTYIEIGHHPEDNIFKLENSHFENGRGKSPYDPKLLTASLLIDGELYSGTAADFMGRDFAIFRTLGHHHPIRTEQHDSRWLNDPKFISAHLISESDNPEDDKVYFFFRENAIDGEHSGKATHARIGQICKNDFGGHRSLVNKWTTFLKARLICSVPGPNGIDTHFDELQDVFLMNFKDPKNPVVYGVFTTSSNIFKGSAVCMYSMSDVRRVFLGPYAHRDGPNYQWVPYQGRVPYPRPGTCPSKTFGGFDSTKDLPDDVITFARSHPAMYNPVFPMNNRPIVIKTDVNYQFTQIVVDRVDAEDGQYDVMFIGTDVGTVLKVVSIPKETWYDLEEVLLEEMTVFREPTAISAMELSTKQQQLYIGSTAGVAQLPLHRCDIYGKACAECCLARDPYCAWDGSACSRYFPTAKRRTRRQDIRNGDPLTHCSDLHHDNHHGHSPEERIIYGVENSSTFLECSPKSQRALVYWQFQRRNEERKEEIRVDDHIIRTDQGLLLRSLQQKDSGNYLCHAVEHGFIQTLLKVTLEVIDTEHLEELLHKDDDGDGSKTKEMSNSMTPSQKVWYRDFMQLINHPNLNTMDEFCEQVWKRDRKQRRQRPGHTPGNSNKWKHLQENKKGRNRRTHEFERAPRSV", "values": [{"measurement": "senescence (SA-β-gal) in 661W retinal neuron cell line", "setting": "[6]", "value": "induces senescence"}, {"measurement": "senescence (SA-β-gal) in macrophage-like J774 cells", "setting": "[7]; 100 ng/ml, 7 days", "value": "induces senescence"}, {"measurement": "expression of Pai1, Il6, Il1β, TGF-β and Tp53 (RT-qPCR)", "setting": "[7]; J774, 100 ng/mL, 7 days", "value": "drove expression"}, {"measurement": "senescence-associated DNA-damage foci expressing γH2AX", "setting": "[7]; J774, 100 ng/mL, 7 days", "value": "promoted"}, {"measurement": "IRE1α activation (p-IRE1α S724 immunoblot)", "setting": "[7]; J774, sustained exposure, 100 ng/mL, 3 or 7 days", "value": "activated"}, {"measurement": "senescence (SA-β-gal) in HRMECs", "setting": "[8]; 100 ng/ml, 7 days", "value": "induces senescence"}, {"measurement": "normal endothelial cell growth (ECIS)", "setting": "[8]; HRMECs, 100 ng/ml", "value": "stunted"}, {"measurement": "S phase", "setting": "[8]; [11]", "value": "significantly reducing"}, {"measurement": "cell cycle arrest in G0/G1", "setting": "[8]; [11]", "value": "increased"}, {"measurement": "SA-β-gal staining of retina sagittal cryosections", "setting": "[9]", "value": "marked augmentation"}, {"measurement": "p53, p16INK4a and IRE1α in retina (immunoblot)", "setting": "[9]", "value": "marked increase"}]}
